Data taken from article PMC8500670, “A selective WDR5 degrader inhibits acute myeloid leukemia in patient-derived mouse models” (Science translational medicine, 2021).

Tests used:
von Hippel–Lindau (VHL) = von Hippel–Lindau (VHL) (Homo sapiens, UniProt P40337); assay: ITC; […]-Å crystal structure of WDR5-MS67-VCB ternary complex; assay type: binding
PRMT1 = PRMT1 (Homo sapiens, UniProt Q99873); assay: biochemical; set-up: protein methyltransferase inhibition panel, single concentration, duplicate
Procedure: (§1) We next assessed selectivity of MS67 against 22 protein methyltransferases (table S2) and a broad panel of common drug targets including 45 kinases (table S3) and 44 G protein–coupled receptors (GPCR), ion channels, and transporters (table S4). […] We subsequently determined that MS67 had moderate binding affinity (Ki = 1.0 ± 0.8 μM) to Sigma 2 receptor (fig. S10).

SUV39H2 = SUV39H2 (Homo sapiens, UniProt Q9H5I1); assay: biochemical; set-up: protein methyltransferase inhibition panel, single concentration, duplicate
Procedure: as §1

DOT1L = DOT1L (Homo sapiens, UniProt Q8TEK3); assay: biochemical; set-up: protein methyltransferase inhibition panel, single concentration, duplicate
Procedure: as §1

SET7/9 = biological target: T1, SET7/9 (Homo sapiens, UniProt Q8WTS6); assay: biochemical; set-up: protein methyltransferase inhibition panel, single concentration, duplicate
T1 construct: gene SETD7
T1 sequence (Q8WTS6 1-366): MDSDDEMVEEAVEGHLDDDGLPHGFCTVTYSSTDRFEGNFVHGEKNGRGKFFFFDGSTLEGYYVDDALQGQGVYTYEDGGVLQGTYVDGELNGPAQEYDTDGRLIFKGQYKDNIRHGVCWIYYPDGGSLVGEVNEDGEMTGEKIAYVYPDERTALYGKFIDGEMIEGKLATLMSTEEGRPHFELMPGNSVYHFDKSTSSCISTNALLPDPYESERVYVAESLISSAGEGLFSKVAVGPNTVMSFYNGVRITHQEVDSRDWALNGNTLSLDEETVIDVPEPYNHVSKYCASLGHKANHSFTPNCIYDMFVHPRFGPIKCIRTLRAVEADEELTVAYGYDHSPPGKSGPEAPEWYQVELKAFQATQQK
Procedure: as §1

PRMT7 = biological target: T2, PRMT7 (Homo sapiens, UniProt Q9NVM4); assay: biochemical; set-up: protein methyltransferase inhibition panel, single concentration, duplicate
T2 sequence (Q9NVM4 1-692): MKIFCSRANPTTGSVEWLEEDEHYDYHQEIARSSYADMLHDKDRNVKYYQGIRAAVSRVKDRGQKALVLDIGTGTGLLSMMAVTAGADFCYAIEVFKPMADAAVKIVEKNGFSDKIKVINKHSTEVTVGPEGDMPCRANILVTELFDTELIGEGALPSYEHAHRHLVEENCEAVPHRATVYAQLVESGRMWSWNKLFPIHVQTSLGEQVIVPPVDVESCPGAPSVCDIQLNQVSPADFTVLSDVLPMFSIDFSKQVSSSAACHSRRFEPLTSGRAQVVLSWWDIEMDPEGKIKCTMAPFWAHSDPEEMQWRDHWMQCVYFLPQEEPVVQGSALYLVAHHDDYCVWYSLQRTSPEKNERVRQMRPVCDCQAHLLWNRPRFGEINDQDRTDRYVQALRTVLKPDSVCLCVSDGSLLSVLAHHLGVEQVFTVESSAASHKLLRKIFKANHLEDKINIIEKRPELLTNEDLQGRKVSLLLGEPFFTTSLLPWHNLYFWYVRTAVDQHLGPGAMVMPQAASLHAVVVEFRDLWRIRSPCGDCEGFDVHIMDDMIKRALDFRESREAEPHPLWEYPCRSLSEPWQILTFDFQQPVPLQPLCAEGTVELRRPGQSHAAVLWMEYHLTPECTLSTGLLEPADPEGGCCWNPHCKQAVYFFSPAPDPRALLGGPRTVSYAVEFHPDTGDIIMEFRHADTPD
Procedure: as §1

PRMT8 = PRMT8 (Homo sapiens, UniProt Q9NR22); assay: biochemical; set-up: protein methyltransferase inhibition panel, single concentration, duplicate
Procedure: as §1

D1 = biological target: T3, D1 (Homo sapiens, UniProt P21728); assay: biochemical; set-up: GPCR, ion channel and transporter panel, per cent inhibition of binding, mean of four
T3 construct: gene DRD1
Procedure: as §1

Sequence of PRMT1 (Q99873 whole entry): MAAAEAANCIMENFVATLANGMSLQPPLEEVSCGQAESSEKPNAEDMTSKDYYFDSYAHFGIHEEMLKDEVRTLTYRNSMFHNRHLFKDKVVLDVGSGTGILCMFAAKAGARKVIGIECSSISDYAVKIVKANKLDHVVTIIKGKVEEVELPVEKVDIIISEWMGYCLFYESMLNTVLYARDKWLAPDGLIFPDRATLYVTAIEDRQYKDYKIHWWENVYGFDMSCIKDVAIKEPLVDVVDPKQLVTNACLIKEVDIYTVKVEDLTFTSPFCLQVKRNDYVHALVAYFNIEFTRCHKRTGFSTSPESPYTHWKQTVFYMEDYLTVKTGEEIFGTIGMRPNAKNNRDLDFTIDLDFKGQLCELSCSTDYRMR
Sequence of SUV39H2 (Q9H5I1 whole entry): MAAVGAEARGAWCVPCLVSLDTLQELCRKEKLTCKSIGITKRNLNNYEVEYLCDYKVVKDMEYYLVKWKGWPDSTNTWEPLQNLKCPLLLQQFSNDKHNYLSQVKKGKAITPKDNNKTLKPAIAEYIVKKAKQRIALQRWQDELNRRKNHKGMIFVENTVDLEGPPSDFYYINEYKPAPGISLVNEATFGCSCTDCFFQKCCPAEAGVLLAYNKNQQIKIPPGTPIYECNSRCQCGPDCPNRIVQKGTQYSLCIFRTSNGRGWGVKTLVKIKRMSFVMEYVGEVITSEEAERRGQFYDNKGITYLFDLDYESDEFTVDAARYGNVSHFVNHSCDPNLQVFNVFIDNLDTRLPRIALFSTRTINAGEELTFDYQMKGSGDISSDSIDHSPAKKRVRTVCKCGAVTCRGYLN
T3 sequence (P21728 whole entry): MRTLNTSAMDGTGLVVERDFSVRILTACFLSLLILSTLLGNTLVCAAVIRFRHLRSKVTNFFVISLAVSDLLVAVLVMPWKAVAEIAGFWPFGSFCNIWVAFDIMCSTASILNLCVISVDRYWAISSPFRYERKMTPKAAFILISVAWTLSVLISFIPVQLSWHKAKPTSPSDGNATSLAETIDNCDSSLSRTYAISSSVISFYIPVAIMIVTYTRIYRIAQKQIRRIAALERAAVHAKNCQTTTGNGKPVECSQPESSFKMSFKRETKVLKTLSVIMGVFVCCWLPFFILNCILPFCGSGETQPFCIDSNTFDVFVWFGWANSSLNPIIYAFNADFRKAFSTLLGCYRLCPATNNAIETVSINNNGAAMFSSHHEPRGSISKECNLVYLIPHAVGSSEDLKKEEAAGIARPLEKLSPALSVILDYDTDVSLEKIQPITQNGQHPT
Sequence of DOT1L (Q8TEK3 whole entry): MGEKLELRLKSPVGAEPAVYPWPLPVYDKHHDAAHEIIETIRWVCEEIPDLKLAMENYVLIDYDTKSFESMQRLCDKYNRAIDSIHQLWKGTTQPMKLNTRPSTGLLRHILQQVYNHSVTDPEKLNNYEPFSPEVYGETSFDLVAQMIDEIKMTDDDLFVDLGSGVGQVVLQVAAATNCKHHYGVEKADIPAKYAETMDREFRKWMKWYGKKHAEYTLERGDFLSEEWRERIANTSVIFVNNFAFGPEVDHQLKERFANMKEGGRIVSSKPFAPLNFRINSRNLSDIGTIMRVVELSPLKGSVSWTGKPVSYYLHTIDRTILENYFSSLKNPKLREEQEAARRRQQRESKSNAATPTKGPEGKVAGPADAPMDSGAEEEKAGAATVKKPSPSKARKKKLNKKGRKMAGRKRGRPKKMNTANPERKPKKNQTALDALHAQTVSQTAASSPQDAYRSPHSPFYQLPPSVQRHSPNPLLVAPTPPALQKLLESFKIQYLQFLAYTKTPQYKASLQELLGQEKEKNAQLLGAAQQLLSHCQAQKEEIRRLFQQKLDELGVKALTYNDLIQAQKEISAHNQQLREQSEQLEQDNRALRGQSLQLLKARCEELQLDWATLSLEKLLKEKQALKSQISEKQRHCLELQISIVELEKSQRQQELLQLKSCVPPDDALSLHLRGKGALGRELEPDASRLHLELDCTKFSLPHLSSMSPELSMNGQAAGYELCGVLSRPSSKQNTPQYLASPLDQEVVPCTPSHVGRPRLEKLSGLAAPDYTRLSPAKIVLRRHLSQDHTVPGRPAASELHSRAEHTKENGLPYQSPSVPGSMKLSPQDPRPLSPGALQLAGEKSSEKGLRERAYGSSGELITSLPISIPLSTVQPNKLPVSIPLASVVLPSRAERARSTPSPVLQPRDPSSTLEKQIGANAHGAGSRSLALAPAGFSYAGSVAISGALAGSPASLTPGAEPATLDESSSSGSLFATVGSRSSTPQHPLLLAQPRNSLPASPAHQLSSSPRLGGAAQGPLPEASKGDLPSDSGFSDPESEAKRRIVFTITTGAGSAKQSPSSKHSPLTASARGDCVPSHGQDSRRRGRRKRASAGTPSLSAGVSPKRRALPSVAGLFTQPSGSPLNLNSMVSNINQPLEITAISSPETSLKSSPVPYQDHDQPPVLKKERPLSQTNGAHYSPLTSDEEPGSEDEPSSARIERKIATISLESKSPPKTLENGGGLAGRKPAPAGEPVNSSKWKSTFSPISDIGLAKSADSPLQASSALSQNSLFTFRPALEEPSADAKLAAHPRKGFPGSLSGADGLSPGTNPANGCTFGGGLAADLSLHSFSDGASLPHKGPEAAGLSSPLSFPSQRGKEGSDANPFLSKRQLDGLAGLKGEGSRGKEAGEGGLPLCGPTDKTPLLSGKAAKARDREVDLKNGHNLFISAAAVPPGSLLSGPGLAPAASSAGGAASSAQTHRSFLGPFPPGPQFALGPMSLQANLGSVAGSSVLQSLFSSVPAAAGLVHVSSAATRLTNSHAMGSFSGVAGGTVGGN
Sequence of von Hippel–Lindau (VHL) (P40337 whole entry): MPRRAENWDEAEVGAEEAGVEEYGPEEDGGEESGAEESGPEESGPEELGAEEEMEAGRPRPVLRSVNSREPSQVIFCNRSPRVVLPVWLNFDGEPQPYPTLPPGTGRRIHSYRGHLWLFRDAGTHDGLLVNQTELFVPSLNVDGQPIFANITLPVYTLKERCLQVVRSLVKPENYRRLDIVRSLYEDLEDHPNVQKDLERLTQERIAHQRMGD
Sequence of von Hippel–Lindau (VHL) (Q15369 whole entry partner): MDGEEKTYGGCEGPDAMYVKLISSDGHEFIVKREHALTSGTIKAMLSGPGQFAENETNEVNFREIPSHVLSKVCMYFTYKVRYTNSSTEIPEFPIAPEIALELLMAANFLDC
Sequence of von Hippel–Lindau (VHL) (Q15370 whole entry partner): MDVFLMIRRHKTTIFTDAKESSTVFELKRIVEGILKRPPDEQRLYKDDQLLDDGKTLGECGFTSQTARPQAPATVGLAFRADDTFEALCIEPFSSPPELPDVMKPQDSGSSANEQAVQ
Sequence of PRMT8 (Q9NR22 whole entry): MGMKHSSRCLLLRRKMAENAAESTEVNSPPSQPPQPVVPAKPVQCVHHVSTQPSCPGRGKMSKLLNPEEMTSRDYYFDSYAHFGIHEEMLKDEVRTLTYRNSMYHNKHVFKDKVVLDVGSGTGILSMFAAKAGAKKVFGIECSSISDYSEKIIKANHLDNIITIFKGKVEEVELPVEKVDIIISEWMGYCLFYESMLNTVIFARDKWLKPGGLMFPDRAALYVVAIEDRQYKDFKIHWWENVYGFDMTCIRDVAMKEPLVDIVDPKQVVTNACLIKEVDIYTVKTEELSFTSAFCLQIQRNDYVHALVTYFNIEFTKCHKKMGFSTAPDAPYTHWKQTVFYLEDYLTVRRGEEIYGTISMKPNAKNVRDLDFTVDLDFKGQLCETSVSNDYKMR

Compound: Cc1ncsc1-c1ccc([C@H](C)NC(=O)[C@@H]2C[C@@H](O)CN2C(=O)[C@@H](NC(=O)CNC(=O)c2ccc(F)c(-c3ccc(N4C[C@@H](C)N(C)[C@@H](C)C4)c(NC(=O)c4c[nH]c(=O)cc4C(F)(F)F)c3)c2)C(C)(C)C)cc1 [MS67]
- Kd (von Hippel–Lindau (VHL)): 140 ± 7.2 nM
- inhibition at 10 µM (PRMT1): < 10%
- inhibition at 10 µM (SUV39H2): < 10%
- inhibition at 10 µM (DOT1L): < 10%
- inhibition at 10 µM (SET7/9): < 10%
- inhibition at 10 µM (PRMT7): < 10%
- inhibition at 10 µM (PRMT8): < 10%
- inhibition at 1 µM (D1): 18.7%
